Legend:
ΔF508 CFTR = ΔF508 CFTR (Homo sapiens, UniProt P13569, DEL508-508); test: Ussing chamber short circuit current in Fisher Rat Thyroid epithelial cells overexpressing ΔF508-CFTR; assay type: cell-based; design: expressed in transfected cells; host or cells: Fisher Rat Thyroid (FRT) epithelial cells, stably transfected; settings: FRT cells
Experimental: The most prevalent disease causing mutation of the CF transmembrane conductance regulator (CFTR) chloride channel is the deletion of phenylalanine at position 508 in the primary sequence of CFTR (ΔF508-CFTR). This mutation causes a trafficking defect resulting in a severe reduction of ΔF508-CFTR protein at the cell surface. The trafficking defect can be corrected by incubation at low temperature (27° C. overnight) or pharmacologically by small molecules and CFTR correctors. Chloride transport function of Fisher Rat Thyroid (FRT) epithelial cells overexpressing ΔF508-CFTR in monolayers grown on Snapwell™ filter inserts will be monitored as the CFTR agonist evoked short circuit (ISC) current output of an Ussing epithelial voltage clamp apparatus. An objective of this study is to measure the ability of test compounds to restore function to defective ΔF508-CFTR in FRT epithelial cell monolayers.
Measurement of corrector efficacy is divided into two phases. The initial phase is incubation of epithelia with the test compounds for a period of time (that can range from 2 hours to one or two days) in a 37° C. incubator and the second phase is measurement of epithelial ΔF508-CFTR chloride channel current with an epithelial voltage clamp (Ussing assay). The short circuit current (ISC) is measured under short circuit conditions (0 mV transepithelial potential). The ISC magnitude is an index of corrector efficacy and is compared to vehicle and positive control.
Cryopreserved FRT cells stably transfected with ΔF508-CFTR cDNA (Pedemonte et al. (2005) J. CLIN. INVEST., 115, p. 2564-2571) were expanded and plated on Snapwell™ filters for measurement of short circuit current in an Ussing apparatus (Physiologic Instruments, Inc., Sand Diego, Calif.). Cells were grown in Coon's modification of Ham's F-12 media supplemented with zeocin and G-418.
To conduct the assay, a compound of the invention was solubilized as follows: • 1) Prepare 25 mM stock solution in 100% DMSO. • 2) Dilute 12 μL of 25 mM stock solution in 1.20 mL of FBS to make 250 μM intermediate dilution 10× stock (1% DMSO, 99% FBS). Gently vortex all solutions until the solution becomes clear. • 3) Prepare final dilution of 10 μM in 10 mL of Coon's media per well (4 wells×2 mL per well bottom+0.2 mL per insert top=8.8 mL and 1.2 mL reserve for handling losses) by addition of 400 μL of 10× stock and 600 μL of 10× carrier (1% DMSO, 99% FBS) to 9000 μL of Coon's media.
For this example, the test compound was solubilized and added to the appropriate inserts of Ussing chambers (n=4 for each test compound, final test concentration of 10 μM). A DMSO vehicle control and a positive control (VX-809 at 3 μM) were also used. For this particular example, all the test articles, including the positive control, were incubated with the cells for a period of 4 hours. The FRT cell monolayers grown on Snapwell™ filter inserts were transferred to Physiologic Instruments Ussing recording chambers (Physiologic Instruments, Inc., San Diego, Calif.) and superfused with HB-PS on the basolateral side and 78CF-PS on the apical side. One or more 6-channel or 8-channel Physiologic Instruments VCC MC6 or VCC MC8 epithelial voltage clamps were then used in combination to record the short circuit current (ISC) during the entire run. To initiate the ISC measurement, amphotericin (100 μM) was added to the basolateral side of the Snapwell™ filter insert to permeabilize the epithelial cells for 15 min. Forskolin (10 μM), IBMX (100 μM), Genistein (20 μM) and the CFTRinh-172 (20 μM) were added sequentially after the following incubation periods (15 min, 20 min, 10 min, 15 min and 15 min respectively). Data acquisition and analyses were performed using iWorx data acquisition hardware and Labscribe 2 software (iWorx, Dover, N.H.). […]

[1] = system: Matrix Metalloproteinase 2 (MMP-2); test: ELISA of MMP-2 in conditioned media of lung fibroblasts; assay type: cell-based, human; settings: NLF, LL29 and LL97A cells, 25 μM, in the presence of TGFβ
Text: Normal human lung fibroblasts (ScienCell Research Laboratory 3420), lung fibroblasts from idiopathic pulmonary fibrosis (IPF) patients LL29 (AnHa) (ATCC) and LL97A (ALMy) (ATCC) were maintained in DMEM F12 (Gibco 10565) supplemented with 15% fetal bovine serum (FBS) (Gibco 10437-028) plus Pen-Strep (1%) (Gibco 15140-122). Cells were split every 3 to 4 days at 1:2/1:3 dilution each time. The day before the experiment, cells were trypsinized using Trypsin-EDTA (0.05%) (Gibco 25300-054) and plated on 24-well […] at 1×10^5 cells per well.
Compounds II-3 and I-1 were first solubilized in 100% DMSO as 50 mM solution, and then diluted 1 to 200 in 1% BSA as a 10× stock solution of […], and series stock dilution (1 to 2 dilution) were carried out as needed. […] The total RNA was harvested, and the relative mRNA expression levels were assessed via RT-PCR with HPRT as the internal control. […] Significance was determined by student's t-test in comparison to control.
Conditioned media were collected at the end of the experiment. The levels of Matrix Metalloproteinase 2 (MMP-2) (R&D System MMP200) and human Tissue Inhibitor of Metalloproteinase 2 (TIMP-2) (R&D System DTM200) were measured according to the manufacturer's instruction. […] The ELISA was measured on a Victor×5 multilabel plate reader (PerkinElmer) at an absorbance of 450 nm with background correction at 550 nm. […]

[2] = II-3 (10 μM)+VX-809 (3 μM)+VX-770 (100 nM), 24 hours, positive control VX-809+VX-770 = 100%

ΔF508 CFTR, sequence (P13569 with tags, fused parts or gaps DEL508-508): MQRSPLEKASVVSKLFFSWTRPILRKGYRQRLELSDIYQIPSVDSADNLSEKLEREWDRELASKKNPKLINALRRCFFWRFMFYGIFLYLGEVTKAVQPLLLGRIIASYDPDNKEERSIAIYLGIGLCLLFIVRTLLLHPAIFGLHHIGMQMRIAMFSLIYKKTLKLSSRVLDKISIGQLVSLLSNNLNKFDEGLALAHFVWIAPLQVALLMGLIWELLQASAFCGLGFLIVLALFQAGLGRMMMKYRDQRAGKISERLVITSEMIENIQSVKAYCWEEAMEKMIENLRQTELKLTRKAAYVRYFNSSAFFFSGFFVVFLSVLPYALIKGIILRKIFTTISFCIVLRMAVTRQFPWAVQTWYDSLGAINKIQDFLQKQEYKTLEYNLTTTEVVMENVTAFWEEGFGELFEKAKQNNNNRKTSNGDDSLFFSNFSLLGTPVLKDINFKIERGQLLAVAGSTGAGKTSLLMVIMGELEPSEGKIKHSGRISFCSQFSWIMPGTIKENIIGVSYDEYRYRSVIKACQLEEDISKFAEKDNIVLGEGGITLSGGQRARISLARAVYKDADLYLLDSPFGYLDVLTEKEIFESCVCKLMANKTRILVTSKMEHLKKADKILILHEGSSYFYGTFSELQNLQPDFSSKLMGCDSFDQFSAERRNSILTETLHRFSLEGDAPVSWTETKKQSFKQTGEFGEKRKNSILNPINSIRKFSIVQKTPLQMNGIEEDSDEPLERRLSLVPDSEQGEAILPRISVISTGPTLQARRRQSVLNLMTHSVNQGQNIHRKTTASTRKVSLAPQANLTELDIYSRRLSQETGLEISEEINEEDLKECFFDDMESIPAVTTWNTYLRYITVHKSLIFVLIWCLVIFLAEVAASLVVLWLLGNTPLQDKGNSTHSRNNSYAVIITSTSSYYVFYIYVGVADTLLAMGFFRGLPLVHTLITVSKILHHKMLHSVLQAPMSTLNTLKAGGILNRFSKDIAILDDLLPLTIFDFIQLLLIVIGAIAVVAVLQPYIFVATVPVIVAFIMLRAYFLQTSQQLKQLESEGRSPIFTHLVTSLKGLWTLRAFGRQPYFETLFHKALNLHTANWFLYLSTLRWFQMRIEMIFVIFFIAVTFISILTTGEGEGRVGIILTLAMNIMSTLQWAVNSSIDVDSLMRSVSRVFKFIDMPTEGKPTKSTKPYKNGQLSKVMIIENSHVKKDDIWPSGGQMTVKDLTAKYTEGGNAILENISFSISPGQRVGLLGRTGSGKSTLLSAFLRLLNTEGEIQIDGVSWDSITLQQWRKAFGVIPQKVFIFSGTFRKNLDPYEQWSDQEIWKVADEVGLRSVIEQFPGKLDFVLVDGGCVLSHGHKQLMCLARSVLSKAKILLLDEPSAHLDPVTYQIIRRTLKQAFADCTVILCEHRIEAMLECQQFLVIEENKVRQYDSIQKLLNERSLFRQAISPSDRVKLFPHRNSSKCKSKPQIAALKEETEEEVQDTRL

`CC/C=C\C/C=C\C/C=C\C/C=C\C/C=C\C/C=C\CCC(=O)NCCSSC(C)(C)CNC(=O)c1cccnc1` [II-3, N-(2-((2-((4Z,7Z,10Z,13Z,16Z,19Z)-docosa-4,7,10,13,16,19-hexaenamido)ethyl)disulfanyl)-2-methylpropyl)nicotinamide] was tested, and the “short circuit current trace” value (ΔF508 CFTR; 10 μM with VX-770 or VX-809+VX-770, 24 hours) was “functionally active”, the “steady state response upon the addition of Forskolin” value (ΔF508 CFTR; II-3 (10 μM)+VX-770 compared with vehicle+VX-770, 24 hours) was “modest response” and the “steady state response upon the addition of Forskolin, % of control” value (ΔF508 CFTR; [2]) was 143.6%. For the same molecule, the “steady state response upon the addition of the CFTRinh-172, % of control” value (ΔF508 CFTR; [2]) was 144.0% and the “MMP-2 level in conditioned media” value [1] was “marked reduction”.

Reference: patent publication US10251845B2, “Fatty acid cysteamine conjugates and their use as activators of autophagy” (Catabasis Pharmaceuticals, Inc., priority 2014, dated 2019)
